Where two headings read alike, the source gives them in different places.
Biological target: T1, NgTet1 (Naegleria gruberi, UniProt D2W6T1)
T1 construct: His6-tagged full-length Naegleria gruberi NgTet1 (321 a. a.) protein with a thrombin cleavage site; made in house; host or cells: E. coli BL21(DE3)
T1 sequence (D2W6T1 1-321): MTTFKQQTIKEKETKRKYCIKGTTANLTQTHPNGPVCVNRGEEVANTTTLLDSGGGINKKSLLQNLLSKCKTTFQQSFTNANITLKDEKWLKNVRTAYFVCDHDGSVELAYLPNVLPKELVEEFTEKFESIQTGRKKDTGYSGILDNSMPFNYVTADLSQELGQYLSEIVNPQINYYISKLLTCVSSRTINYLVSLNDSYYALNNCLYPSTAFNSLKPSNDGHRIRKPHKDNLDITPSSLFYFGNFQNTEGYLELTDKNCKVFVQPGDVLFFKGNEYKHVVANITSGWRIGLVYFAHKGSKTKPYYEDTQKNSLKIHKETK
Assay type: biochemical
Procedure: Double-stranded 12 bp DNA oligomers were added at a final concentration of 20 µM. […]
Double-stranded DNA oligomers were added at a final concentration of 20 µM. […]
All ^1H NMR spectra were recorded at 25 °C using D2O as a reference for internal deuterium lock on a Bruker Avance III 700 MHz equipped with an inverse TCI cryoprobe in 3 or 5 mm diameter tubes with a total sample volume of 160 or 565 μL, respectively. The water signal was reduced using Perfect Echo excitation sculpting suppression. Chemical shifts are reported in ppm relative to D2O (δH = 4.70 ppm).
Spectrometer settings were determined using a control sample containing all reaction components excluding enzyme. TET enzyme was added to an identical sample, and the resulting assay mixture was transferred to an NMR tube before deposition into the instrument. […] Spectrum recordings were carried out consecutively without delay. Data were processed using automated routines on MestReNova v14.2.0; signals of interest were integrated with absolute intensity scaling. ^1H NMR time courses reported in figures are representative results from two or three independent replicates.

AT DNA: double-stranded self-complementary 5'-ACC ACA TGT GGT-3', CpG replaced by ApT (DNA ACCACATGTGGT; DNA, backbone and methylation of C not given here; self-complementary duplex)
V0 NgTet1 (20 µM DNA, 100 μM 2OG, 5 μM NgTet1): 0.82 µM/min
succinate (n = 1, time (min) 5HC DNA 5.9, AT DNA 5.81667, 5mC DNA 5.78333): 4.127 µM
succinate (n = 1, time (min) 5HC DNA 8.98333, AT DNA 8.9, 5mC DNA 8.86667): 6.717 µM
succinate (n = 1, time (min) 5HC DNA 12.0667, AT DNA 11.9833, 5mC DNA 11.95): 10.1801 µM
succinate (n = 1, time (min) 5HC DNA 15.1333, AT DNA 15.0667, 5mC DNA 15.0333): 12.0396 µM
succinate (n = 1, time (min) 5HC DNA 18.2167, AT DNA 18.1333, 5mC DNA 18.1167): 14.7705 µM
succinate (n = 1, time (min) 5HC DNA 21.3667, AT DNA 21.2333, 5mC DNA 21.2): 16.3534 µM
succinate (n = 1, time (min) 5HC DNA 24.45, AT DNA 24.3167, 5mC DNA 24.2833): 18.4118 µM
succinate (n = 1, time (min) 5HC DNA 27.5333, AT DNA 27.3833, 5mC DNA 27.3667): 20.2156 µM
succinate (n = 1, time (min) 5HC DNA 30.6, AT DNA 30.4667, 5mC DNA 30.45): 21.7474 µM
succinate (n = 1, time (min) 5HC DNA 33.6833, AT DNA 33.55, 5mC DNA 33.5333): 22.2243 µM
succinate (n = 1, time (min) 5HC DNA 36.7667, AT DNA 36.6333, 5mC DNA 36.6167): 23.7117 µM
succinate (n = 1, time (min) 5HC DNA 39.85, AT DNA 39.7167, 5mC DNA 39.7): 24.5115 µM
succinate (n = 1, time (min) 5HC DNA 42.9333, AT DNA 42.8, 5mC DNA 42.7833): 26.1396 µM
succinate (n = 1, time (min) 5HC DNA 46.0167, AT DNA 45.8833, 5mC DNA 45.8667): 27.6473 µM
succinate (n = 1, time (min) 5HC DNA 49.0833, AT DNA 48.9667, 5mC DNA 48.95): 28.232 µM
succinate (n = 1, time (min) 5HC DNA 52.1667, AT DNA 52.05, 5mC DNA 52.0333): 29.053 µM
succinate (n = 1, time (min) 5HC DNA 55.25, AT DNA 55.1167, 5mC DNA 55.1167): 29.9694 µM
succinate (n = 1, time (min) 5HC DNA 58.3333, AT DNA 58.2, 5mC DNA 58.2): 30.8156 µM
succinate (n = 1, time (min) 5HC DNA 61.4, AT DNA 61.2833, 5mC DNA 61.2833): 32.4581 µM
succinate (n = 1, time (min) 5HC DNA 64.4833, AT DNA 64.3833, 5mC DNA 64.35): 32.8043 µM
succinate (n = 2, time (min) 5HC DNA 5.81667, AT DNA 5.61667, 5mC DNA 6.08333): 3.542 µM
succinate (n = 2, time (min) 5HC DNA 8.88333, AT DNA 8.7, 5mC DNA 9.16667): 5.909 µM
succinate (n = 2, time (min) 5HC DNA 12.0333, AT DNA 11.7833, 5mC DNA 12.25): 8.271 µM
succinate (n = 2, time (min) 5HC DNA 15.1167, AT DNA 14.8667, 5mC DNA 15.3167): 11.2722 µM
succinate (n = 2, time (min) 5HC DNA 18.1833, AT DNA 17.9333, 5mC DNA 18.4): 12.8044 µM
succinate (n = 2, time (min) 5HC DNA 21.2667, AT DNA 21.0167, 5mC DNA 21.4833): 14.5697 µM
succinate (n = 2, time (min) 5HC DNA 24.35, AT DNA 24.1, 5mC DNA 24.5667): 16.6119 µM
succinate (n = 2, time (min) 5HC DNA 27.4333, AT DNA 27.1833, 5mC DNA 27.65): 17.8887 µM
succinate (n = 2, time (min) 5HC DNA 30.5167, AT DNA 30.2667, 5mC DNA 30.7333): 19.2454 µM
succinate (n = 2, time (min) 5HC DNA 33.6, AT DNA 33.35, 5mC DNA 33.8167): 20.9427 µM
succinate (n = 2, time (min) 5HC DNA 36.6833, AT DNA 36.4333, 5mC DNA 36.9): 21.6807 µM
succinate (n = 2, time (min) 5HC DNA 39.7667, AT DNA 39.5167, 5mC DNA 39.9833): 23.2699 µM
succinate (n = 2, time (min) 5HC DNA 42.8333, AT DNA 42.6, 5mC DNA 43.0667): 23.7997 µM
succinate (n = 2, time (min) 5HC DNA 45.9167, AT DNA 45.6833, 5mC DNA 46.15): 25.1342 µM
succinate (n = 2, time (min) 5HC DNA 49, AT DNA 48.7667, 5mC DNA 49.2333): 26.0623 µM
succinate (n = 2, time (min) 5HC DNA 52.0833, AT DNA 51.85, 5mC DNA 52.3167): 26.9664 µM
succinate (n = 2, time (min) 5HC DNA 55.1667, AT DNA 54.9333, 5mC DNA 55.4): 27.9222 µM
succinate (n = 2, time (min) 5HC DNA 58.25, AT DNA 58.0167, 5mC DNA 58.4833): 28.2598 µM
succinate (n = 2, time (min) 5HC DNA 61.3333, AT DNA 61.1, 5mC DNA 61.5667): 29.5623 µM
succinate (n = 2, time (min) 5HC DNA 64.4167, AT DNA 64.1667, 5mC DNA 64.65): 30.2392 µM
Relative V0 NgTet1 (relative to reactions without DNA): 2.3

— PMC11662004 (Communications Chemistry, 2024)
